Measurements as given in ChEMBL document CHEMBL3779897, “Novel quinoline-derived mTOR inhibitors with remarkable enzymatic and cellular activities: design, synthesis and biological evaluation” (Medchemcomm, 2016).
Calls of active or inactive are those of the source. The rule behind the calls is not given here.

What was measured:
cells [1] = conditions: Homo sapiens, PC-3, 72 h
MCF7 [2] = assay: cells; conditions: Homo sapiens, MCF7, 72 h
cells [3] = conditions: Homo sapiens, HCT-116, 72 h
[4] = target: T1, Serine/threonine-protein kinase mTOR (Homo sapiens, UniProt P42345); assay: Inhibition of human mTOR using ULight-4E-BP1 peptide as substrate after 1 hr by Lance ultra assay
[5] = Stability in simulated gastric fluid after 45 mins; type: ADME; conditions: simulated gi fluid, 0.75 h
[6] = target: T2, Phosphatidylinositol 4,5-bisphosphate 3-kinase catalytic subunit beta isoform (Homo sapiens, UniProt P42338); assay: Inhibition of PI3Kbeta (unknown origin) at 1 uM after 1 hr by ADP-Glo luminescent assay
Target sequence in this assay (P42338 whole entry, looked up, canonical isoform): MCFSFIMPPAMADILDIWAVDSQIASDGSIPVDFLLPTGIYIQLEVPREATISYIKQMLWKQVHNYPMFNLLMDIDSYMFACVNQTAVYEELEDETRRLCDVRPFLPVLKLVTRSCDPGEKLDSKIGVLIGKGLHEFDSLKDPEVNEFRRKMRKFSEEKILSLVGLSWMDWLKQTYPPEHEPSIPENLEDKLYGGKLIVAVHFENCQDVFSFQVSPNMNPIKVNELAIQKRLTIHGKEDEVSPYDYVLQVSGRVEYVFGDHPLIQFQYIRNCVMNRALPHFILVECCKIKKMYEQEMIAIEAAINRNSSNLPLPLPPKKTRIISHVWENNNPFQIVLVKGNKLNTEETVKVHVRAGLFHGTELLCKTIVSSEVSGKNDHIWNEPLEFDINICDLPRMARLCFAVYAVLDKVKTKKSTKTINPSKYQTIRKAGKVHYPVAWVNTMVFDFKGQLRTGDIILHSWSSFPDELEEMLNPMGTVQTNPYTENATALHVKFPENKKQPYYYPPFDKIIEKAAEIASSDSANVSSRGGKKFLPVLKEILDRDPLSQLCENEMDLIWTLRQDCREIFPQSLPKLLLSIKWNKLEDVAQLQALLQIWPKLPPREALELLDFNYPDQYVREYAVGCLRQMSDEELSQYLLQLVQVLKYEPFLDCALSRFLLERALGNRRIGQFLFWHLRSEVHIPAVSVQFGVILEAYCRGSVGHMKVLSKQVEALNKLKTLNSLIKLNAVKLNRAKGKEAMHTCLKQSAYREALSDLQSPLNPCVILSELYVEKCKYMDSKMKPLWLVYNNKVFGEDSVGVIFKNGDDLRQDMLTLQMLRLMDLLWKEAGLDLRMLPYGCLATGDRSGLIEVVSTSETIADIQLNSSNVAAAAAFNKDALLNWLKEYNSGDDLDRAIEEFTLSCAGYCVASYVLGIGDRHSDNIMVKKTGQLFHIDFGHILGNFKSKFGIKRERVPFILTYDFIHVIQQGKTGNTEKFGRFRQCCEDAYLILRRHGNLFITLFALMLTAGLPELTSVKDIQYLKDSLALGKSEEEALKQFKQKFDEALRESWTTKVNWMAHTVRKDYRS

[7] = target: T3, Phosphatidylinositol 4,5-bisphosphate 3-kinase catalytic subunit gamma isoform (Homo sapiens, UniProt P48736); assay: Inhibition of human PI3Kgamma at 1 uM after 1 hr by ADP-Glo luminescent assay
Target sequence in this assay (P48736 whole entry, looked up, canonical isoform): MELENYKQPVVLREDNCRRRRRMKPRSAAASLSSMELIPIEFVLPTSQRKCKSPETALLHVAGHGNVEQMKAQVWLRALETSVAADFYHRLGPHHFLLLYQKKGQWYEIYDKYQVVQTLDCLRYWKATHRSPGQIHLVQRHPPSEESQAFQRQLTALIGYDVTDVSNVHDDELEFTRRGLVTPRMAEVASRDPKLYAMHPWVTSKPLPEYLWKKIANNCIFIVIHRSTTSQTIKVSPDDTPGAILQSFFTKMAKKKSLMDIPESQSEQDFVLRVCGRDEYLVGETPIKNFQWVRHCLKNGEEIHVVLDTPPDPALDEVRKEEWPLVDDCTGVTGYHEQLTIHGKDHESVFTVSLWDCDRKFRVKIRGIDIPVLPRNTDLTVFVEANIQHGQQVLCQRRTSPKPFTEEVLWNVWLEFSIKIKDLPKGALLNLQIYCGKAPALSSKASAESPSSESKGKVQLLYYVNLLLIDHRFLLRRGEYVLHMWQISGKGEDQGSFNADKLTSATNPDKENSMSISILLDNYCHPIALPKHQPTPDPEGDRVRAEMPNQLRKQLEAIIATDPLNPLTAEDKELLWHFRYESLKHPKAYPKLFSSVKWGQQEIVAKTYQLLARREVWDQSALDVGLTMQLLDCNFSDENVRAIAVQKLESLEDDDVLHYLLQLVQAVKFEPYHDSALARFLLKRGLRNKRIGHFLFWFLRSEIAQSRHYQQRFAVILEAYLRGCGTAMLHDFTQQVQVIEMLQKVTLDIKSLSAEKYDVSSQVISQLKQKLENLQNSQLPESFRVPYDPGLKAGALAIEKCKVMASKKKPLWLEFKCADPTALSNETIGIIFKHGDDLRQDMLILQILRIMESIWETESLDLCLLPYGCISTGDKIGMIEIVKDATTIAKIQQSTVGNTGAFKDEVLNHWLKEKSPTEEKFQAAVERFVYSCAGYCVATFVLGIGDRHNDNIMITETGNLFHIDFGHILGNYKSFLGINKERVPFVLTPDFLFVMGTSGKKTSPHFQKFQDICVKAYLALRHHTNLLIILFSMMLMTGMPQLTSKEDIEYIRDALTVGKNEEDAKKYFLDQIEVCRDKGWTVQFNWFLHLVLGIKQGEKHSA

[8] = target: T4, Phosphatidylinositol 4,5-bisphosphate 3-kinase catalytic subunit delta isoform (Homo sapiens) (UniProt O00329); assay: Inhibition of PI3Kdelta (unknown origin) at 1 uM after 1 hr by ADP-Glo luminescent assay
T4 sequence (whole entry): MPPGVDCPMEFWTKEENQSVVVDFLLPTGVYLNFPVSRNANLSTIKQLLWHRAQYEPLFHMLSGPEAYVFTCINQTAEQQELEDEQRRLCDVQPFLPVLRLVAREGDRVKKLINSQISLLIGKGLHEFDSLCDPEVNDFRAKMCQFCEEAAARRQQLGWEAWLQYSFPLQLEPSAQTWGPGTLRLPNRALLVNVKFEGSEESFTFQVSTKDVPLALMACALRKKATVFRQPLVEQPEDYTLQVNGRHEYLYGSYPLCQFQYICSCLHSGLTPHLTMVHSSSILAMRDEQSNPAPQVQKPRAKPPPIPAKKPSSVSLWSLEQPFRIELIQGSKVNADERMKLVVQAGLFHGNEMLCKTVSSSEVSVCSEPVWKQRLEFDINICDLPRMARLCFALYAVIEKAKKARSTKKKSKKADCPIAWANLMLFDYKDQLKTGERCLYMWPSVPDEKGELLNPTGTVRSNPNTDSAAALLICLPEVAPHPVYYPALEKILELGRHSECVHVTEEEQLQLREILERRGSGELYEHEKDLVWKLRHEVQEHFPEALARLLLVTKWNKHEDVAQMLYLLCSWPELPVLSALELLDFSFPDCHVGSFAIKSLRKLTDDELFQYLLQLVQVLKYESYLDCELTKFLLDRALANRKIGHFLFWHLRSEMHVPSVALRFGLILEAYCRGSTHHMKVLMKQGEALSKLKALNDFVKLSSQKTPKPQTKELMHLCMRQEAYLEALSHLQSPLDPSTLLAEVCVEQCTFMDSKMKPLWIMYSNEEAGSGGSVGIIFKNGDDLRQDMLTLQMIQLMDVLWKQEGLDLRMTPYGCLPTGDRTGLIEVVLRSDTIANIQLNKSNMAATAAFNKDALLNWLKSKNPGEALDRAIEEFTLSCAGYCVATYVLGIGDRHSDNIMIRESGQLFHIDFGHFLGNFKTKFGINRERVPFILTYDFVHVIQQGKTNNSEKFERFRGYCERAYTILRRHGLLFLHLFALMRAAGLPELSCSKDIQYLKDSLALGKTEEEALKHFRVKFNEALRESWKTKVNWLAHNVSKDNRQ

[9] = target: T5, Phosphatidylinositol 4,5-bisphosphate 3-kinase catalytic subunit alpha isoform (Homo sapiens, UniProt P42336); assay: Inhibition of human recombinant PI3Kalpha using PIP2 as substrate at 1 uM after 1 hr by Kinase-Glo luminescent assay
[10] = Stability in simulated intestinal fluid after 45 mins; type: ADME; conditions: simulated gi fluid, 0.75 h
Liver microsome = assay: Stability in rat liver microsomes after 30 mins; type: ADME; conditions: 0.5 h
[11] = target: T2, Phosphatidylinositol 4,5-bisphosphate 3-kinase catalytic subunit beta isoform; assay: Inhibition of PI3Kbeta (unknown origin) after 1 hr by ADP-Glo luminescent assay
Target sequence in this assay (P42338 whole entry, canonical isoform): as the sequence (P42338 whole entry, looked up, canonical isoform) above

MCF7 [12] = assay: Inhibition of mTORC2 in human MCF7 cells assessed as downregulation of Akt Ser473 phosphorylation at 0.5 uM after 2 hrs by Western blot analysis; type: cell-based
MCF7 [13] = assay: Inhibition of mTORC2 in human MCF7 cells assessed as downregulation of Akt Ser473 phosphorylation at 0.1 uM after 2 hrs by Western blot analysis; type: cell-based
mTORC1 (Homo sapiens) [14] = target: T6, mTORC1 (Homo sapiens) (UniProt P42345+Q8N122+Q9BVC4); assay: Inhibition of mTORC1 in human MCF7 cells assessed as downregulation of S6 Ser235 phosphorylation at 0.1 uM after 2 hrs by Western blot analysis; type: cell-based
[15] = target: T3, Phosphatidylinositol 4,5-bisphosphate 3-kinase catalytic subunit gamma isoform; assay: Inhibition of human PI3Kgamma after 1 hr by ADP-Glo luminescent assay
Target sequence in this assay (P48736 whole entry, canonical isoform): as the sequence (P48736 whole entry, looked up, canonical isoform) above

[16] = target: T7, Phosphatidylinositol 4,5-bisphosphate 3-kinase catalytic subunit delta isoform (Homo sapiens, UniProt O00329); assay: Inhibition of PI3Kdelta (unknown origin) after 1 hr by ADP-Glo luminescent assay
T7 sequence (O00329 whole entry): T4 sequence (whole entry)

mTORC1 (Homo sapiens) [17] = target: T6, mTORC1 (Homo sapiens); assay: Inhibition of mTORC1 in human MCF7 cells assessed as downregulation of S6 Ser235 phosphorylation at 0.5 uM after 2 hrs by Western blot analysis; type: cell-based
[18] = target: T5, Phosphatidylinositol 4,5-bisphosphate 3-kinase catalytic subunit alpha isoform; assay: Inhibition of human recombinant PI3Kalpha using PIP2 as substrate after 1 hr by Kinase-Glo luminescent assay
[19] = target: T1, Serine/threonine-protein kinase mTOR; assay: Inhibition of human mTOR at 3000 nM using ULight-4E-BP1 peptide as substrate after 1 hr by Lance ultra assay

T6 sequence (Q8N122 whole entry, looked up, other chains not shown, canonical isoform): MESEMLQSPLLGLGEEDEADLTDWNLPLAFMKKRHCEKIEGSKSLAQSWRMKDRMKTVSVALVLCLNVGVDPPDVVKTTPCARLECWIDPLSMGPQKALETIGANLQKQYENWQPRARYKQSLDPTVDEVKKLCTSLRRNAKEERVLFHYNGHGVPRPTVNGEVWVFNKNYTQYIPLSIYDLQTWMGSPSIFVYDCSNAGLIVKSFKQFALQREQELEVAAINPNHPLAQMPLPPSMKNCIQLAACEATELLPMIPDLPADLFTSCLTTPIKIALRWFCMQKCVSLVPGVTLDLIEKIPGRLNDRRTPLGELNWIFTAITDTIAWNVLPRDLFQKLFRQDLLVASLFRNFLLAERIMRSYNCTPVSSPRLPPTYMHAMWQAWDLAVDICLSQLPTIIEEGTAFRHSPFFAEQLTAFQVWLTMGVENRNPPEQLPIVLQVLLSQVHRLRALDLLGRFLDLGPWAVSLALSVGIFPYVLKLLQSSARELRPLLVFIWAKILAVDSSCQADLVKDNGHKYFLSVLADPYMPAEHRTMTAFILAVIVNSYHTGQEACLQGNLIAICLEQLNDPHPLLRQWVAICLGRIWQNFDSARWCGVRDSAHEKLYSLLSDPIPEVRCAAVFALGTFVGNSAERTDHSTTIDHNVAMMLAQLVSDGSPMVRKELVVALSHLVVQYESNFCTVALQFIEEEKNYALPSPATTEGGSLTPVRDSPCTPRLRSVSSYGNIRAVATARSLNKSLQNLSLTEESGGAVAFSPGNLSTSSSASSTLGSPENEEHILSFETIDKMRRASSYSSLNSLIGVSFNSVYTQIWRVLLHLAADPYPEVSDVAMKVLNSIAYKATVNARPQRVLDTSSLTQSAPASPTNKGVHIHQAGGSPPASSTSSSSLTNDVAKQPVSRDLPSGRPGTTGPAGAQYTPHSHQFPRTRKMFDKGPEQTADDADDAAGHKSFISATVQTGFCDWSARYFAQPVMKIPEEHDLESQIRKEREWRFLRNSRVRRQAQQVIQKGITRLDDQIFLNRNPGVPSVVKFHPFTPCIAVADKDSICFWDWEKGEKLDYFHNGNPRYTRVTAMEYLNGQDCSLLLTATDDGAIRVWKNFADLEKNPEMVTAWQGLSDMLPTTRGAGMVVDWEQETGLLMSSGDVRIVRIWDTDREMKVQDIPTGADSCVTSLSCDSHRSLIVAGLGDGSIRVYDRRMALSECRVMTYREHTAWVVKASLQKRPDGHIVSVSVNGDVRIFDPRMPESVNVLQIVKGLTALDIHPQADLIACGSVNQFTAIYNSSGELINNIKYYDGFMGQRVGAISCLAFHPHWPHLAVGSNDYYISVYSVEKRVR
T6 sequence (Q9BVC4 whole entry, looked up, other chains not shown, canonical isoform): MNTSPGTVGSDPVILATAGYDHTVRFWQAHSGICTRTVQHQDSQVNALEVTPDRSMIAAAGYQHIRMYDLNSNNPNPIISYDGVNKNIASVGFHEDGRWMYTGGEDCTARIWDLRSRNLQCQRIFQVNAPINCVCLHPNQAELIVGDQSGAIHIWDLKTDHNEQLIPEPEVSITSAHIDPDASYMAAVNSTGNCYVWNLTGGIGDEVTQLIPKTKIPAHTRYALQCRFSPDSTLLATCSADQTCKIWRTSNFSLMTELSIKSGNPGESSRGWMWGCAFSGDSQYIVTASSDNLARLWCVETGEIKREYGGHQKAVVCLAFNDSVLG
T5 sequence (P42336 whole entry, canonical isoform): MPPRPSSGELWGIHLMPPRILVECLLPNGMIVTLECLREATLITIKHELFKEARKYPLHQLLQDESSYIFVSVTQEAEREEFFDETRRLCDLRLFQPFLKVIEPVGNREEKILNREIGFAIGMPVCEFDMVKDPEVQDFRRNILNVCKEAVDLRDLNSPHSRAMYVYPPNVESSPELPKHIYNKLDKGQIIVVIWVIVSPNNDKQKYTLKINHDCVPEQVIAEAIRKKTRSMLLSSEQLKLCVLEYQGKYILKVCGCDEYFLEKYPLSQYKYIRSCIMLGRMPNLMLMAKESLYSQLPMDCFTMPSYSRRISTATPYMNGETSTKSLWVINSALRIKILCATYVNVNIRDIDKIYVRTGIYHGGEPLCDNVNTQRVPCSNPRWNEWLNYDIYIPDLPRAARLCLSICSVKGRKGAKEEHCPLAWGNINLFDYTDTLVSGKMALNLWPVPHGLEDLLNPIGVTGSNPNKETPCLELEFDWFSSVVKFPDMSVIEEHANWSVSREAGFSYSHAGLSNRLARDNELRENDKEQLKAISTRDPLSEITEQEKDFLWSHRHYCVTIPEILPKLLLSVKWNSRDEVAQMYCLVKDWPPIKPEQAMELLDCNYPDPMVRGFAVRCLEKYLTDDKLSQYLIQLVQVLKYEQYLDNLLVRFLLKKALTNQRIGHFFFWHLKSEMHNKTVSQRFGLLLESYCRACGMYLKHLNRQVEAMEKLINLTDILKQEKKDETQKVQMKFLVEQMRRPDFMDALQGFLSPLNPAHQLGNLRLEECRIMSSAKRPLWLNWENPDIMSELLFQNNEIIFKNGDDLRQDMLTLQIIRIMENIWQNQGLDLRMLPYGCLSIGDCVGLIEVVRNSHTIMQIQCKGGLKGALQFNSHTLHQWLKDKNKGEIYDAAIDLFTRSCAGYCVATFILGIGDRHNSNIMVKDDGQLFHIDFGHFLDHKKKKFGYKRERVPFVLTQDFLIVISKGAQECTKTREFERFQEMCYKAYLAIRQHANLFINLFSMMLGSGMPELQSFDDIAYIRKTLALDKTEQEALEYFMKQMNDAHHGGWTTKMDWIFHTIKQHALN

IC50 (cells [1]) [nM] | IC50 (MCF7 [2]) [nM] | IC50 (cells [3]) [nM] | SMILES | also measured
3820 | 320 | 1240 | O=C(Nc1cnc2ccc(-c3cnc4ccccc4c3)cc2c1Nc1ccc(N2CCNCC2)c(C(F)(F)F)c1)C(F)(F)F | 
> 10000 |  | > 10000 | CC(=O)Nc1cnc2ccc(-c3cnc4ccccc4c3)cc2c1Nc1ccc(C#N)cc1 | IC50 [4]: > 3000 nM
> 10000 | 790 | > 10000 | CC(=O)N1CCN(c2ccc(Nc3c(NC(=O)C(C)(C)C)cnc4ccc(-c5cnc6ccccc6c5)cc34)cc2C(F)(F)F)CC1 | 
> 10000 |  | > 10000 | CC(C)(C)C(=O)Nc1cnc2ccc(-c3cnc4ccccc4c3)cc2c1Nc1ccc(C(C)(C)C#N)cc1 | 
3440 | 470 | 1610 | Nc1cnc2ccc(-c3cnc4ccccc4c3)cc2c1Nc1ccc(N2CCNCC2)c(C(F)(F)F)c1 | 
> 10000 |  | > 10000 | CC(C)(C#N)c1ccc(Nc2c(N(S(C)(=O)=O)S(C)(=O)=O)cnc3ccc(-c4cnc5ccccc5c4)cc23)cc1 | 
500 | 110 | 360 | CC(=O)Nc1cnc2ccc(-c3cnc4ccccc4c3)cc2c1Nc1ccc(N2CCNCC2)c(C(F)(F)F)c1.Cl | Stability [5]: Stable; IC50 [4]: 22 nM; inhibition [6]: 1%; inhibition [7]: 47.3%; inhibition [8]: 34.9%; inhibition [9]: 42.1%; Stability [10]: Stable; Stability (Liver microsome): Stable
1050 | 300 | 640 | CC(C)(C)C(=O)Nc1cnc2ccc(-c3cnc4ccccc4c3)cc2c1Nc1ccc(N2CCNCC2)c(C(F)(F)F)c1 | 
190 | 60 | 430 | CC(=O)Nc1cnc2ccc(-c3cnc4ccccc4c3)cc2c1Nc1ccc(N2CCN(S(C)(=O)=O)CC2)c(C(F)(F)F)c1 | 
170 | 40 | 110 | CC(=O)Nc1cnc2ccc(-c3cnc4ccccc4c3)cc2c1Nc1ccc(N2CCN(C(C)=O)CC2)c(C(F)(F)F)c1 | IC50 [11]: > 5000 nM; IC50 [4]: 30 nM; Activity (MCF7 [12]): Active; Activity (MCF7 [13]): Active; Activity (mTORC1 (Homo sapiens) [14]): Active; IC50 [15]: 502 nM; IC50 [16]: 2080 nM; Activity (mTORC1 (Homo sapiens) [17]): Active; IC50 [18]: 1500 nM
> 10000 |  | > 10000 | COc1cc(Nc2c(NC(C)=O)cnc3ccc(-c4cnc5ccccc5c4)cc23)cc(OC)c1 | IC50 [4]: > 3000 nM
190 |  | 140 | Cn1c(=O)n(-c2ccc(C(C)(C)C#N)cc2)c2c3cc(-c4cnc5ccccc5c4)ccc3ncc21 [DACTOLISIB] | 
5420 | 1110 | 1450 | CS(=O)(=O)Nc1cnc2ccc(-c3cnc4ccccc4c3)cc2c1Nc1ccc(N2CCNCC2)c(C(F)(F)F)c1 | 
> 10000 | 1360 | > 10000 | CC(C)(C#N)c1ccc(Nc2c(NC(=O)C(F)(F)F)cnc3ccc(-c4cnc5ccccc5c4)cc23)cc1 | inhibition [19]: 92%
> 10000 |  | > 10000 | CC(=O)Nc1cnc2ccc(-c3cnc4ccccc4c3)cc2c1Nc1ccc(C(F)(F)F)cc1 | IC50 [4]: > 3000 nM
2560 | 440 | 3950 | CC(=O)Nc1cnc2ccc(-c3cnc4ccccc4c3)cc2c1Nc1ccc(C(C)(C)C#N)cc1 | 
> 10000 |  | > 10000 | CC(C)(C#N)c1ccc(Nc2c(NS(C)(=O)=O)cnc3ccc(-c4cnc5ccccc5c4)cc23)cc1 | 
